The results in this text go back to ChEMBL document CHEMBL1129551, “All-atom models for the non-nucleoside binding site of HIV-1 reverse transcriptase complexed with inhibitors: a 3D QSAR approach” (J Med Chem, 1996).

Usually IC50 stands for the point on the concentration scale where inhibition reaches its midpoint.

The test concerns the target Human immunodeficiency virus type 1 reverse transcriptase (Human immunodeficiency virus 1, UniProt Q72547). Description: Inhibitory activity against HIV-1 reverse transcriptase.
Take `CCc1nc2n(c1C)-c1cccnc1N(CC)c1ncccc1-2`: half-maximal inhibition (IC50) was put at 5.63 µM. The same measure for `CCN1c2ncccc2-c2ncc(C)n2-c2ccc(N3CC=CCC3)nc21`: 2.7 µM; for `CCN1c2ncccc2-c2ncc(C)n2-c2c(C)cc(=O)[nH]c21`: 12.2 µM; for `CCN1c2ncccc2-c2nccn2-c2ccc(N3CC=CCC3)nc21`: 3.9 µM.
